According to a melting point compilation (Tetko et al.):

Row | SMILES | melting point [°C]
1 | CCS(=O)(=O)Nc1cc(Br)ccc1OC | 105 to 107
2 | Cc1cccc(NC(N)=S)c1 | 110 to 112
3 | CC(O)C1CCCNC1 (stereo not given) | 52 to 54
4 | Nc1c(Br)ccc(Br)c1C(=O)O | 145 to 147
5 | Cc1cc2c[nH]nc2c(C(=O)O)c1N | 174 to 176
6 | CS(=O)(=O)N1CCC(CN)CC1 | 63 to 65
7 | COc1ccc(Nc2ncccc2N)cc1 | 164 to 166
8 | Cc1cc(-c2nccn2Cc2ccccc2)c(=O)[nH]n1 | 215 to 217
9 | N#Cc1cc[nH]c1 | 55 to 57
10 | COc1ccc(C=O)cc1OCCCC#N | 72 to 74
11 | NC(=O)c1cc(N)cc(C(N)=O)c1 | 246 to 248
12 | CC(=O)Nc1cc(F)c(S(=O)(=O)Cl)c(F)c1 | 133 to 135
13 | Cc1cc(C(=O)O)c(C)n1C1CCCCC1 | 204 to 206
14 | Cc1n[nH]c2ncc(C=O)cc12 | 202 to 204
15 | O=C(CN1CCNCC1)Nc1ccc(OC(F)(F)F)cc1 | 86 to 88
16 | [N-]=[N+]=Nc1ccnc(C(N)=O)c1 | 169 to 171
17 | COCCn1cnnc1S | 79 to 81
18 | NS(=O)(=O)c1ccc(CC(=O)O)cc1 | 169 to 171
19 | CCc1ccc(C(=O)CCl)cc1 | 41 to 43
20 | O=C(O)CNS(=O)(=O)c1ccccc1F | 170 to 172
21 | Cc1cc(C)nc(SCC(=O)NN)n1 | 119 to 121
22 | CC(=O)c1[nH]c2c(c1C)C(=O)NC(=O)C2 | 354 to 356
23 | NCc1ccnc(-n2cccn2)c1 | 44 to 46
24 | COc1ccc(OCc2cc(C(=O)O)c(C)o2)cc1 | 123 to 133
25 | CC(C)(CC(=O)c1ccc(Cl)cc1)C(=O)O | 147 to 149
26 | CC1=C(C(=O)O)C(=O)OC1(C)C | 111 to 113

Row | SMILES | melting point [°C]
27 | Cc1nc(C)c(CC(=O)O)c(=O)[nH]1 | 229 to 231
28 | COc1ccc(CN2C(=O)c3ccccc3C2=O)cc1C(=O)O | 143 to 145
29 | N#Cc1c(F)cccc1Oc1ccc(C(=O)O)cc1 | 186 to 188
30 | Nc1nc2ccc(Br)cc2s1 | 119 to 121
31 | CCc1csc(-n2cc(C(=O)O)cn2)n1 | 159 to 161
32 | NS(=O)(=O)NCc1ccccc1 | 107 to 109
33 | CC(=O)c1ccccc1NS(=O)(=O)c1cccs1 | 150 to 152
34 | Cc1cc(C)n(-c2ccc(C(F)(F)F)cc2N)n1 | 85 to 87
35 | O=C1COc2ncccc2N1 | 254 to 256
36 | CNS(=O)(=O)Cc1ccccc1CN | 130 to 132
37 | Brc1cccn2cnnc12 | 184 to 186
38 | O=S(=O)(Cl)c1cn[nH]c1 | 99 to 101
39 | N#Cc1ccsc1C(=O)O | 191 to 193
40 | CCCCn1c(N)c(NC)c(=O)[nH]c1=O | 201 to 203
41 | COCCOc1cc2c(cc1C=O)OCO2 | 84 to 86
42 | Nc1[nH]ncc1CCCO | 88 to 90
43 | c1cncc(CNC2=NCCS2)c1 | 90 to 92
44 | CCN(CC)S(=O)(=O)c1ccc(NN)nc1 | 134 to 136
45 | CS(=O)(=O)c1ccc(N)cn1 | 171 to 173
46 | N#Cc1ccc([N+](=O)[O-])cc1F | 69 to 71
47 | CCOc1ccc(NC(=O)c2ccc(NC(=O)CCl)cc2)cc1 | 253 to 255
48 | CNC1CCC(NC(=O)OC(C)(C)C)CC1 (stereo not given) | 72 to 74
49 | Cc1ccc(C)c(C(=O)CCC(=O)O)c1 | 80 to 84
50 | CC1CC(N)=NN1Cc1ccccc1 (stereo not given) | 159 to 161
51 | Oc1ccnc2c(OC(F)(F)F)cccc12 | 145 to 147
52 | Nc1ncnc2c1ncn2CCCCl | 339 to 341

Row | SMILES | melting point [°C]
53 | CNCc1ccc(O)cc1 | 103 to 105
54 | COCCn1cc(S(=O)(=O)Cl)cn1 | 35 to 37
55 | COc1ccccc1CNCCO | 65 to 67
56 | CCOC(=O)c1cnn(-c2ncccn2)c1N | 181 to 183
57 | O=C(O)c1occc1Br | 155 to 157
58 | Cc1ccc(C(=O)NCC(=O)O)s1 | 66 to 68
59 | O=C(O)c1cc(NS(=O)(=O)c2cccs2)ccc1O | 209 to 211
60 | O=S(=O)(Cl)c1cc2c(cc1Br)OCCO2 | 173 to 175
61 | NC(=S)COCc1ccccc1 | 43 to 45
62 | Nc1nc(-c2ccccc2)c(-c2ccccc2)s1 | 181 to 183
63 | c1ccc2c(c1)CC(n1ccnc1)CN2 (stereo not given) | 110 to 112
64 | OC(c1ccc(Br)cc1)C(F)(F)F (stereo not given) | 50 to 52
65 | Cc1cnn([N+](=O)[O-])c1 | 41 to 43
66 | O=C(O)CNC(=O)c1cc2ccccc2[nH]1 | 231 to 233
67 | Cc1ccc2c(CCl)cc(=O)oc2c1C | 174 to 176
68 | Cc1cc(C)c(CCNC(=O)CCl)c(C)c1 | 143 to 145
69 | CC(=O)c1csc(N)n1 | 165 to 177
70 | CCOC(=O)C1CCC(=O)NC1 (stereo not given) | 66 to 68
71 | CNc1ncc(C(F)(F)F)cc1Cl | 44 to 46
72 | Cc1ccc(S(=O)(=O)N(C)c2ccc(O)cc2)cc1 | 137 to 139
73 | Nc1cc(CC2CCCCC2)n[nH]1 | 72 to 74
74 | O=C(O)c1ccc(NS(=O)(=O)C=Cc2ccccc2)cc1 | 254 to 256
75 | CN(CCS(=O)(=O)F)S(=O)(=O)c1ccc(F)cc1 | 129 to 131
76 | Nc1ccc(-c2ccccc2)nn1 | 145 to 147
77 | COC(=O)C#Cc1ccc(F)cc1F | 58 to 60
78 | O=C(Nc1ccc(F)cc1)NC1CCNC1 (stereo not given) | 150 to 152

Row | SMILES | melting point [°C]
79 | O=C(CCl)NC1CCOc2ccccc21 (stereo not given) | 86 to 88
80 | CCS(=O)(=O)CCOc1ccc(S(=O)(=O)Cl)cc1 | 92 to 94
81 | CCc1cc(=O)[nH]c(-c2ccncc2)n1 | 172 to 174
82 | COc1ccc(C)cc1C(=O)CBr | 73 to 75
83 | COc1ncnc(N)c1C=O | 197 to 199
84 | Cc1c(O)ccc2c(CCl)cc(=O)oc12 | 268 to 270
85 | CC(N)=C(C#N)C(=O)O | 319 to 321
86 | Sc1nnc(-c2ccccc2)s1 | 199 to 201
87 | NCc1ccc(NC(=O)c2ccc(F)cc2)cc1 | 135 to 137
88 | CCOC(=O)c1ccc2c(c1)NC(=O)C(C)N2 (stereo not given) | 181 to 183
89 | NCC(O)c1ccc(Cl)cc1 (stereo not given) | 97 to 99
90 | O=C(O)c1c[nH]nc1-c1ccc(F)cc1 | 302 to 304
91 | COC(=O)C(N)c1cc(C)c(O)c(C)c1 (stereo not given) | 147 to 149
92 | Nc1ccc(-c2nc3cc(Br)ccc3[nH]2)cc1 | 219 to 221
93 | CCOC(=O)Cc1ccc(F)cc1 | 29 to 31
94 | CC1(C(=O)O)COC(=O)OC1 | 159 to 161
95 | CC(Oc1ccc(F)c(F)c1)C(=O)O (stereo not given) | 39 to 41
96 | CCOC(=O)CC(O)c1ccc(OCc2ccccc2)cc1 (stereo not given) | 61 to 63
97 | CC(C)(C)OC(=O)NCC1(C(=O)O)CCCC1 | 123 to 125
98 | Nc1n[nH]c2cccc(F)c12 | 171 to 173
99 | Cc1ccc(NS(C)(=O)=O)c(C(=O)O)c1 | 195 to 197
100 | O=C(Nc1nncs1)c1ccc(O)cc1 | 303 to 305
101 | O=C(O)c1cn(-c2ccc(Br)cc2C(F)(F)F)nn1 | 139 to 141

More lines, now with the values ahead:

Row | melting point [°C] | SMILES
102 | 153 to 155 | O=C(O)CCN1C(=O)COc2cc(Br)ccc21
103 | 237 to 239 | O=C(O)c1ccc(-c2nc(C3CC3)n[nH]2)cc1
104 | 144 to 146 | O=C(O)C1CCN(C(=O)c2ccccc2)CC1
105 | 136 to 138 | Cc1nnc(-c2cccc(N)c2)o1
106 | 194 to 196 | O=C(O)c1cc([N+](=O)[O-])ccc1N1CCCCC1
107 | 103 to 105 | CCc1cc(Cl)nc(-c2ccc([N+](=O)[O-])cc2)n1
108 | 230 to 232 | O=C(CCl)Nc1ccc2[nH]c(=O)[nH]c2c1
109 | 104 to 106 | O=C(O)c1cccc(OCC(F)(F)F)c1
110 | 63 to 65 | O=S(=O)(CCCl)c1cccc(Br)c1
111 | 135 to 137 | O=C(O)CCc1ccc([N+](=O)[O-])cn1
112 | 169 to 171 | O=c1[nH]c(-c2ccccc2Br)cs1
113 | 56 to 58 | O=C(O)C1CCCOC1c1ccccc1 (stereo not given)
114 | 175 to 177 | Cc1sc(N)nc1-c1cccc([N+](=O)[O-])c1
115 | 219 to 221 | O=C(O)c1nn(-c2cccc(F)c2)ccc1=O
116 | 153 to 155 | Cc1ccc(C(=O)N2CCOCC2)cc1N
117 | 176 to 178 | CN(C(=O)c1ccc(N)cc1)C1CCCCC1
118 | 156 to 158 | CN1N=C(C(=O)O)CCC1=O
119 | 159 to 161 | Nc1cccc2c1C(=O)N(C1CC1)C2=O
120 | 107 to 109 | O=C1CCCN1c1cccc([N+](=O)[O-])c1
121 | 83 to 85 | CC(CC(=O)O)c1cccc(C(F)(F)F)c1 (stereo not given)
122 | 117 to 119 | COc1cc(C=O)ccc1OCC(=O)N1CCCC1
123 | 206 to 208 | Nc1ccc(C(=O)O)nc1Br

Row | melting point [°C] | SMILES
124 | 159 to 161 | NC(=O)Cn1ccc([N+](=O)[O-])n1
125 | 135 to 137 | CC1Cc2c(Br)cccc2C(=O)N1 (stereo not given)
126 | 171 to 173 | Cc1cc(C(=O)CCl)c(C)n1-c1cccc(S(=O)(=O)N2CCOCC2)c1
127 | 125 to 129 | CN(C)S(=O)(=O)c1cc(N)ccc1Cl
128 | 163 to 165 | CC(C)N1C(=O)CC(C(=O)O)C1c1ccc(Cl)c(F)c1 (stereo not given)
129 | 154 to 156 | CC(=O)c1oc2ccccc2c1N
130 | 209 to 211 | CN(C)C(=O)Nc1cccc(C(=O)O)c1
131 | 174 to 176 | O=C(O)CNc1cccc(Cl)c1
132 | 243 to 245 | O=C1CC(Cc2ccc(C(=O)O)cc2)C(=O)N1 (stereo not given)
133 | 103 to 105 | COC(=O)CC1c2ccccc2CCN1S(C)(=O)=O (stereo not given)
134 | 71 to 73 | O=[N+]([O-])c1cnc2c(c1)CCCC2
135 | 70 to 72 | Nc1cc(F)c(N2CCCCC2)c(F)c1
136 | 208 to 215 | O=C(O)c1cncn1-c1ccccc1
137 | 162 to 164 | O=C(O)CS(=O)(=O)c1ccc([N+](=O)[O-])cc1
138 | 212 to 214 | O=C(O)c1nn(-c2ccc(Cl)cc2)c2c1CCCCC2
139 | 173 to 175 | Nc1ccc2c(c1)CCN2C(=O)c1ccoc1
140 | 141 to 143 | NC(=O)c1cccc(N)n1
141 | 169 to 171 | NNC(=O)CSc1nc2ccccc2o1
142 | 81 to 83 | CCN(CC)C(=O)c1cccc(N)c1
143 | 181 to 183 | NS(=O)(=O)c1cccc(-n2cnnn2)c1
144 | 200 to 202 | CC1Cc2ccccc2N1S(=O)(=O)c1ccc(F)c(C(=O)O)c1 (stereo not given)
145 | 189 to 191 | Cc1n[nH]c2ncc([N+](=O)[O-])cc12
